{
  "source": "patent US9956241B2",
  "about": "“Application of American Ginseng to enhance neurocognitive function” (priority 2009, dated 2018)",
  "origin": "cited, not measured here",
  "key": {"[1]": {"system": "central cholinergic nerve endings"}, "[2]": {"system": "brain serotonin concentrations", "conditions": "in vivo"}, "[3]": {"system": "choline acetyltransferase and nerve growth factor messenger RNA", "conditions": "rat brains"}, "[4]": {"system": "LTP in the hippocampal formation", "conditions": "in vivo; rats"}, "plasma corticosterone": {"system": "plasma corticosterone", "conditions": "rodents"}, "[5]": {"system": "choline acetyltransferase", "conditions": "rodent brains"}, "[6]": {"system": "synaptosomal uptake of norepinephrine, dopamine, serotonin and GABA"}, "[7]": {"system": "human neuronal nicotinic acetylcholine receptors"}},
  "data": [
    {"smiles": "CC(C)=CCC[C@](C)(O[C@@H]1O[C@H](CO[C@@H]2O[C@H](CO)[C@@H](O)[C@H](O)[C@H]2O)[C@@H](O)[C@H](O)[C@H]1O)[C@H]1CC[C@]2(C)[C@@H]1[C@H](O)C[C@@H]1[C@@]3(C)CC[C@H](O[C@@H]4O[C@H](CO)[C@@H](O)[C@H](O)[C@H]4O[C@@H]4O[C@H](CO)[C@@H](O)[C@H](O)[C@H]4O)C(C)(C)[C@@H]3CC[C@]12C", "note": "[Rb1, ginsenoside Rb1]", "values": [
      {"measurement": "acetylcholine release and reuptake, number of choline uptake sites", "setting": "[1]; hippocampus, to a lesser extent cortex", "result": "modulation"},
      {"measurement": "acetylcholine release", "setting": "[1]; isolated Rb1", "result": "stimulate acetylcholine release"},
      {"measurement": "synaptosomal choline uptake", "setting": "[1]; isolated Rb1", "result": "increase synaptosomal choline uptake"},
      {"measurement": "brain serotonin concentrations", "setting": "[2]", "result": "marked alterations"},
      {"measurement": "expression of choline acetyltransferase and nerve growth factor messenger RNA", "setting": "[3]", "result": "increased expression"},
      {"measurement": "LTP in the hippocampal formation", "setting": "[4]", "result": "modulation of LTP"},
      {"measurement": "stress-induced increases in plasma corticosterone", "setting": "plasma corticosterone", "result": "inhibit"},
      {"measurement": "choline acetyltransferase levels", "setting": "[5]", "result": "increase choline acetyltransferase levels"}
    ]},
    {"smiles": "CC(C)=CCC[C@](C)(O[C@@H]1O[C@H](CO)[C@@H](O)[C@H](O)[C@H]1O)[C@H]1CC[C@]2(C)[C@@H]1[C@H](O)C[C@@H]1[C@@]3(C)CC[C@H](O[C@@H]4O[C@H](CO)[C@@H](O)[C@H](O)[C@H]4O[C@@H]4O[C@H](CO)[C@@H](O)[C@H](O)[C@H]4O)C(C)(C)[C@@H]3CC[C@]12C", "note": "[Rd, ginsenoside Rd]", "values": [
      {"measurement": "corticosterone secretion", "setting": "corticosterone secretion", "result": "affect corticosterone secretion"},
      {"measurement": "synaptosomal uptake of norepinephrine, dopamine, serotonin and GABA", "setting": "[6]", "result": "may inhibit"}
    ]},
    {"smiles": "CC(C)=CCC[C@](C)(O[C@@H]1O[C@H](CO)[C@@H](O)[C@H](O)[C@H]1O)[C@H]1CC[C@]2(C)[C@@H]1[C@H](O)C[C@@H]1[C@@]3(C)CC[C@H](O)C(C)(C)[C@@H]3[C@@H](O[C@@H]3O[C@H](CO)[C@@H](O)[C@H](O)[C@H]3O[C@@H]3O[C@@H](C)[C@H](O)[C@@H](O)[C@H]3O)C[C@]12C", "note": "[Re, ginsenoside Re]", "values": [
      {"measurement": "synaptosomal uptake of norepinephrine, dopamine, serotonin and GABA", "setting": "[6]", "result": "may inhibit"}
    ]},
    {"smiles": "CC(C)=CCC[C@](C)(O[C@@H]1O[C@H](CO)[C@@H](O)[C@H](O)[C@H]1O)[C@H]1CC[C@]2(C)[C@@H]1[C@H](O)C[C@@H]1[C@@]3(C)CC[C@H](O)C(C)(C)[C@@H]3[C@@H](O[C@@H]3O[C@H](CO)[C@@H](O)[C@H](O)[C@H]3O)C[C@]12C", "note": "[Rg1, ginsenoside Rg1]", "values": [
      {"measurement": "brain serotonin concentrations", "setting": "[2]", "result": "marked alterations"},
      {"measurement": "choline acetyltransferase levels", "setting": "[5]", "result": "increase choline acetyltransferase levels"}
    ]},
    {"smiles": "CC(C)=CCC[C@](C)(O)[C@H]1CC[C@]2(C)[C@@H]1[C@H](O)C[C@@H]1[C@@]3(C)CC[C@H](O)C(C)(C)[C@@H]3[C@@H](O[C@@H]3O[C@H](CO)[C@@H](O)[C@H](O)[C@H]3O[C@@H]3O[C@@H](C)[C@H](O)[C@@H](O)[C@H]3O)C[C@]12C", "note": "[Rg2, ginsenoside Rg2]", "values": [
      {"measurement": "interaction with nicotinic receptor subtypes", "setting": "[7]", "result": "direct interaction"}
    ]}
  ]
}
